In US10294234B2, “HIV inhibitor compounds” (priority 2017, dated 2019):
pEC50: −log10 of the molar value. Where two headings read alike, the source gives them in different places.

Experiments:
[1] = test system: HIV-1 (IIIB) in MT-4 cells; assay: MT-4 HIV assay; assay type: cell-based
Outline: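 Antiviral activity was read by Cell Titer Glo after a 5-day, 37 °C culture of MT-4 cells pre-infected with a 1:250 dilution of HIV-1 (IIIB). Compounds were tested as threefold dilution series in complete RPMI. Controls were no drug, mock infection and 5 uM AZT.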

[2] = Outline: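 Each compound (1 uM) is incubated in duplicate with 0.5 mg/mL liver microsomal protein from dog, rat or human plus NADPH-regenerating system. Samples taken at 2, 12, 25, 45 and 65 minutes are deproteinised and quantified by LC/MS/MS. Half-life gives Clint.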
[3] = Human immunodeficiency virus 1, MT4, 120 h, HIV-1 (IIIB), MT-4 cells, 5 days, Cell Titer Glo, read-out: EC50
[4] = human liver microsomes 0.5 mg/mL, 1 uM compound, NADPH
[5] = rat liver microsomes 0.5 mg/mL, 1 uM compound, NADPH

Molecule	pEC50 [1, 3]	Dog. Pred. Cl. ([2]; dog, microsomes)	Human Pred Cl. ([2]; human, microsomes)	Rat. Pred. Cl. ([2]; rat, microsomes)	Human Pred Cl. [2, 4]	Rat. Pred. Cl. [2, 5]	pEC50 ([1]; Human immunodeficiency virus 1, MT4, 120 h)	pEC50 ([1]; HIV-1 (IIIB), MT-4 cells, 5 days, Cell Titer Glo, read-out: EC50)
COC(=O)N[C@H](C(=O)N[C@@H](Cc1ccc(C#Cc2cnc(N3CC4CCC(C3)N4C3COC3)nc2)cc1)[C@@H](O)CN(Cc1c(F)cc(-c2cnc(C)nc2)cc1F)NC(=O)[C@@H](NC(=O)OC)C(C)(C)C(F)(F)F)C(C)(C)C(F)(F)F [Example 119, Methyl ((5S,8S,9S,14S)-11-(2,6-difluoro-4-(2-methylpyrimidin-5-yl)benzyl)-16,16,16-trifluoro-9-hydroxy-15,15-dimethyl-8-(4-((2-(8-(oxetan-3-yl)-3,8-diazabicyclo[3.2.1]octan-3-yl)pyrimidin-5-yl)ethynyl)benzyl)-3,6,13-trioxo-5-(1,1,1-trifluoro-2-methylpropan-2-yl)-2-oxa-4,7,11,12-tetraazahexadecan-14-yl)carbamate]	8.44	1.35 L/H/kg	<0.11 L/H/kg	0.27 L/H/kg	–	–	–	–
COC(=O)N[C@H](C(=O)N[C@@H](Cc1ccc(C#Cc2cnc(N3CC4CCC(C3)N4C3COC3)nc2)cc1)[C@@H](O)CN(Cc1c(F)cc(-c2cnc(N3CC4CCC(C3)N4C3COC3)nc2)cc1F)NC(=O)[C@@H](NC(=O)OC)C(C)(C)C(F)(F)F)C(C)(C)C(F)(F)F [Example 120, Methyl ((5S,8S,9S,14S)-11-(2,6-difluoro-4-(2-(8-(oxetan-3-yl)-3,8-diazabicyclo[3.2.1]octan-3-yl)pyrimidin-5-yl)benzyl)-16,16,16-trifluoro-9-hydroxy-15,15-dimethyl-8-(4-((2-(8-(oxetan-3-yl)-3,8-diazabicyclo[3.2.1]octan-3-yl)pyrimidin-5-yl)ethynyl)benzyl)-3,6,13-trioxo-5-(1,1,1-trifluoro-2-methylpropan-2-yl)-2-oxa-4,7,11,12-tetraazahexadecan-14-yl)carbamate]	8.27	–	0.14 L/H/kg	0.53 L/H/kg	–	–	–	–
COC(=O)N[C@H](C(=O)N[C@@H](Cc1ccc(-c2ccc(N3CC4CCC(C3)N4C3COC3)nc2)cc1)[C@@H](O)CN(Cc1c(F)cc(-c2ccn(CC(F)F)n2)cc1F)NC(=O)[C@@H](NC(=O)OC)C(C)(C)C(F)(F)F)C(C)(C)C(F)(F)F [Example 195, methyl ((5S,8S,9S,14S)-11-(4-(1-(2,2-difluoroethyl)-1H-pyrazol-3-yl)-2,6-difluorobenzyl)-16,16,16-trifluoro-9-hydroxy-15,15-dimethyl-8-(4-(6-(8-(oxetan-3-yl)-3,8-diazabicyclo[3.2.1]octan-3-yl)pyridin-3-yl)benzyl)-3,6,13-trioxo-5-(1,1,1-trifluoro-2-methylpropan-2-yl)-2-oxa-4,7,11,12-tetraazahexadecan-14-yl)carbamate]	8.56	–	0.12 L/H/kg	0.52 L/H/kg	–	–	–	–
COC(=O)N[C@H](C(=O)N[C@@H](Cc1ccc(C#Cc2ccc(N3C[C@H]4C[C@@H]3CN4C3COC3)nc2)cc1)[C@@H](O)CN(Cc1c(F)cc(-c2ncccn2)cc1F)NC(=O)[C@@H](NC(=O)OC)C(C)(C)C(F)(F)F)C(C)(C)C(F)(F)F [Example 93, Methyl ((5S,8S,9S,14S)-11-(2,6-difluoro-4-(pyrimidin-2-yl)benzyl)-16,16,16-trifluoro-9-hydroxy-15,15-dimethyl-8-(4-((6-((1R,4R)-5-(oxetan-3-yl)-2,5-diazabicyclo[2.2.1]heptan-2-yl)pyridin-3-yl)ethynyl)benzyl)-3,6,13-trioxo-5-(1,1,1-trifluoro-2-methylpropan-2-yl)-2-oxa-4,7,11,12-tetraazahexadecan-14-yl)carbamate]	8.60	–	–	–	0.19 L/H/kg	1.13 L/H/kg	–	–
COC(=O)N[C@H](C(=O)N[C@@H](Cc1ccc(C#Cc2ccc(N3CCN([C@H]4CCOC4)CC3)nc2)cc1)[C@@H](O)CN(Cc1c(F)cc(-c2ccn(C(F)F)n2)cc1F)NC(=O)[C@@H](NC(=O)OC)C(C)(C)C(F)(F)F)C(C)(C)C(F)(F)F [Example 145, Methyl ((5S,8S,9S,14S)-11-(4-(1-(difluoromethyl)-1H-pyrazol-3-yl)-2,6-difluorobenzyl)-16,16,16-trifluoro-9-hydroxy-15,15-dimethyl-3,6,13-trioxo-8-(4-((6-(4-((S)-tetrahydrofuran-3-yl)piperazin-1-yl)pyridin-3-yl)ethynyl)benzyl)-5-(1,1,1-trifluoro-2-methylpropan-2-yl)-2-oxa-4,7,11,12-tetraazahexadecan-14-yl)carbamate]	–	–	–	–	<0.11 L/H/kg	–	8.30	–
COC(=O)N[C@H](C(=O)NNC[C@H](O)[C@H](Cc1ccc(C#Cc2cnc(N3CC4CCC(C3)N4C3COC3)nc2)cc1)NC(=O)[C@@H](NC(=O)OCCc1c(F)cc(-c2cn(C34CC(C3)C4)nn2)cc1F)C(C)(C)C(F)(F)F)C(C)(C)C(F)(F)F [Example 131, Methyl ((5S,8S,9S,14S)-1-(4-(1-(bicyclo[1.1.1]pentan-1-yl)-1H-1,2,3-triazol-4-yl)-2,6-difluorobenzyl)-16,16,16-trifluoro-9-hydroxy-15,15-dimethyl-8-(4-((2-(8-(oxetan-3-yl)-3,8-diazabicyclo[3.2.1]octan-3-yl)pyrimidin-5-yl)ethynyl)benzyl)-3,6,13-trioxo-5-(1,1,1-trifluoro-2-methylpropan-2-yl)-2-oxa-4,7,11,12-tetraazahexadecan-14-yl)carbamate]	8.28	–	<0.11 L/H/kg	–	–	–	–	–
COC(=O)N[C@H](C(=O)N[C@@H](Cc1ccc(C#Cc2ccc(N3CC4COCC(C3)N4)nc2)cc1)[C@@H](O)CN(Cc1c(F)cc(-c2ccn(C(F)F)n2)cc1F)NC(=O)[C@@H](NC(=O)OC)C(C)(C)C(F)(F)F)C(C)(C)C(F)(F)F [Example 26, Methyl ((5S,8S,9S,14S)-8-(4-((6-(3-oxa-7,9-diazabicyclo[3.3.1]nonan-7-yl)pyridin-3-yl)ethynyl)benzyl)-11-(4-(1-(difluoromethyl)-1H-pyrazol-3-yl)-2,6-difluorobenzyl)-16,16,16-trifluoro-9-hydroxy-15,15-dimethyl-3,6,13-trioxo-5-(1,1,1-trifluoro-2-methylpropan-2-yl)-2-oxa-4,7,11,12-tetraazahexadecan-14-yl)carbamate]	8.37	–	<0.11 L/H/kg	1.6 L/H/kg	–	–	–	–
Methyl ((5S,8S,9S,14S)-11-(4-(1-(difluoromethyl)-1H-pyrazol-4-yl)-2,6-difluorobenzyl)-16,16,16-trifluoro-9-hydroxy-15,15-dimethyl-8-(4-((6-(4-(oxetan-3-yl)piperazin-1-yl)pyridin-3-yl)ethynyl)benzyl)-3,6,13-trioxo-5-(1,1-trifluoro-2-methylpropan-2-yl)-2-oxa-4,7,11,12-tetraazahexadecan-14-yl)carbamate [Example 116]	–	–	0.19 L/H/kg	0.39 L/H/kg	–	–	–	8.55
COC(=O)N[C@H](C(=O)N[C@@H](Cc1ccc(C#Cc2cnc(N3C[C@H]4C[C@@H]3CN4C3COC3)nc2)cc1)[C@@H](O)CN(Cc1c(F)cc(-c2ccn(CC(F)F)n2)cc1F)NC(=O)[C@@H](NC(=O)OC)C(C)(C)C(F)(F)F)C(C)(C)C(F)(F)F [Example 25, Methyl ((5S,8S,9S,14S)-11-(4-(1-(2,2-difluoroethyl)-1H-pyrazol-3-yl)-2,6-difluorobenzyl)-16,16,16-trifluoro-9-hydroxy-15,15-dimethyl-8-(4-((2-((1R,4R)-5-(oxetan-3-yl)-2,5-diazabicyclo[2.2.1]heptan-2-yl)pyrimidin-5-yl)ethynyl)benzyl)-3,6,13-trioxo-5-(1,1,1-trifluoro-2-methylpropan-2-yl)-2-oxa-4,7,11,12-tetraazahexadecan-14-yl)carbamate]	8.50	–	–	–	0.16 L/H/kg	1.41 L/H/kg	–	–
COC(=O)N[C@H](C(=O)N[C@@H](Cc1ccc(C#Cc2ccc(-c3cn4c(n3)CN(C)C(=O)C4)cc2)cc1)[C@@H](O)CN(Cc1c(F)cc(-c2cnn(C(F)F)c2)cc1F)NC(=O)[C@@H](NC(=O)OC)C(C)(C)C(F)(F)F)C(C)(C)C(F)(F)F [Example 69, Methyl ((5S,8S,9S,14S)-11-(4-(1-(difluoromethyl)-1H-pyrazol-4-yl)-2,6-difluorobenzyl)-16,16,16-trifluoro-9-hydroxy-15,15-dimethyl-8-(4-((4-(7-methyl-6-oxo-5,6,7,8-tetrahydroimidazo[1,2-a]pyrazin-2-yl)phenyl)ethynyl)benzyl)-3,6,13-trioxo-5-(1,1,1-trifluoro-2-methylpropan-2-yl)-2-oxa-4,7,11,12-tetraazahexadecan-14-yl)carbamate]	8.49	–	–	–	<0.11 L/H/kg	<0.18 L/H/kg	–	–
COC(=O)N[C@H](C(=O)N[C@@H](Cc1ccc(-c2cnc(N3CC4CCC(C3)N4C3COC3)nc2)cc1)[C@@H](O)CN(Cc1c(F)cc(-c2ncccn2)cc1F)NC(=O)[C@@H](NC(=O)OC)C(C)(C)C(F)(F)F)C(C)(C)C(F)(F)F [Example 201, Methyl ((5S,8S,9S,14S)-11-(2,6-difluoro-4-(pyrimidin-2-yl)benzyl)-16,16,16-trifluoro-9-hydroxy-15,15-dimethyl-8-(4-(2-(8-(oxetan-3-yl)-3,8-diazabicyclo [3.2.1]octan-3-yl)pyrimidin-5-yl)benzyl)-3,6,13-trioxo-5-(1,1,1-trifluoro-2-methylpropan-2-yl)-2-oxa-4,7,11,12-tetraazahexadecan-14-yl)carbamate]	8.57	–	0.27 L/H/kg	0.49 L/H/kg	–	–	–	–
